Laboratory results from patent publication US7538103B2, “Compounds for the treatment of hepatitis C” (Bristol-Myers Squibb Company, priority 2007, dated 2009).
pEC50, pIC50: −log10 of the molar value. Read-outs that look alike come from different tables or passages of the source.

Legend:
[1] = target: T1, HCV NS5B (Hepatitis C virus genotype 1b, UniProt Q9WMX2); assay: Modified HCV NS5B RdRp enzyme assay (preincubation protocol); format: biochemical
T1 construct: The protein was expressed with an 18 amino acid C-terminal truncation to enhance the solubility; made in house; host or cells: E. coli BL21(DE3)
Protocol: HCV NS5B RdRp cloning, expression, and purification. The cDNA encoding the NS5B protein of HCV, genotype 1b, was cloned into the pET21a expression vector. The protein was expressed with an 18 amino acid C-terminal truncation to enhance the solubility. The E. coli competent cell line BL21(DE3) was used for expression of the protein. Cultures were grown at 37° C. for ˜4 hours until the cultures reached an optical density of 2.0 at 600 nm. The cultures were cooled to 20° C. and induced with 1 mM IPTG. Fresh ampicillin was added to a final concentration of 50 μg/ml and the cells were grown overnight at 20° C.
Cell pellets (3 L) were lysed for purification to yield 15-24 mgs of purified NS5B. The lysis buffer consisted of 20 mM Tris-HCl, pH 7.4, 500 mM NaCl, 0.5% triton X-100, 1 mM DTT, 1 mM EDTA, 20% glycerol, 0.5 mg/ml lysozyme, 10 mM MgCl2, 15 ug/ml deoxyribonuclease I, and Complete TM protease inhibitor tablets (Roche). After addition of the lysis buffer, frozen cell pellets were resuspended using a tissue homogenizer. To reduce the viscosity of the sample, aliquots of the lysate were sonicated on ice using a microtip attached to a Branson sonicator. The sonicated lysate was centrifuged at 100,000×g for 1 hr at 4° C. and filtered through a 0.2 μm filter unit (Corning).
The protein was purified using three sequential chromatography steps: Heparin sepharose CL-6B, polyU sepharose 4B, and Hitrap SP sepharose (Pharmacia). The chromatography buffers were identical to the lysis buffer but contained no lysozyme, deoxyribonuclease I, MgCl2 or protease inhibitor and the NaCl concentration of the buffer was adjusted according to the requirements for charging the protein onto the column. Each column was eluted with a NaCl gradient which varied in length from 5-50 column volumes depending on the column type. After the final chromatography step, the resulting purity of the enzyme is >90% based on SDS-PAGE analysis. The enzyme was aliquoted and stored at −80° C.
Standard HCV NS5B RdRp enzyme assay. HCV RdRp genotype 1b assays were run in a final volume of 60 μl in 96 well plates (Costar 3912). The assay buffer is composed of 20 mM Hepes, pH 7.5, 2.5 mM KCl, 2.5 mM MgCl2, 1 mM DTT, 1.6 U RNAse inhibitor (Promega N2515), 0.1 mg/ml BSA (Promega R3961), and 2% glycerol. All compounds were serially diluted (3-fold) in DMSO and diluted further in water such that the final concentration of DMSO in the assay was 2%. HCV RdRp genotype 1b enzyme was used at a final concentration of 28 nM. A polyA template was used at 6 nM, and a biotinylated oligo-dT12 primer was used at 180 nM final concentration. Template was obtained commercially (Amersham 27-4110). Biotinylated primer was prepared by Sigma Genosys. 3H-UTP was used at 0.6 μCi (0.29 μM total UTP). Reactions were initiated by the addition of enzyme, incubated at 30° C. for 60 min, and stopped by adding 25 μl of 50 mM EDTA containing SPA beads (4 μg/μl, Amersham RPNQ 0007). Plates were read on a Packard Top Count NXT after >1 hr incubation at room temperature.
Modified HCV NS5B RdRp enzyme assay. A modified enzyme assay was performed essentially as described for the standard enzyme assay except for the following: The biotinylated oligo dT12 primer was precaptured on streptavidin-coated SPA beads by mixing primer and beads in assay buffer and incubating at room temperature for one hour. Unbound primer was removed after centrifugation. The primer-bound beads were resuspended in 20 mM Hepes buffer, pH 7.5 and used in the assay at final concentrations of 20 nM primer and 0.67 μg/μl beads. Order of addition in the assay: enzyme (14 nM) was added to diluted compound followed by the addition of a mixture of template (0.2 nM), 3H-UTP (0.6 μCi, 0.29 μM), and primer-bound beads, to initiate the reaction; concentrations given are final. Reactions were allowed to proceed for 4 hours at 30° C.
IC50 values for compounds were determined using seven different [I]. […]

[2] = test system: HCV replicon cells; assay: HCV replicon FRET assay; format: cell-based; details: Hepatitis C virus
From the text: FRET Assay Preparation. To perform the HCV FRET screening assay, 96-well cell culture plates were used. The FRET peptide (Anaspec, Inc.) (Taliani et al., Anal. Biochem. 1996, 240, 60-67) contains a fluorescence donor, EDANS, near one end of the peptide and an acceptor, DABCYL, near the other end. The fluorescence of the peptide is quenched by […] resonance energy transfer (RET) between the donor and the acceptor, but as the NS3 protease cleaves the peptide the products are released from RET quenching and the fluorescence of the donor becomes apparent. The assay reagent was made as follows: 5X cell Luciferase cell culture lysis reagent from Promega (#E153A) diluted to 1× with dH2O, NaCl added to 150 mM final, the FRET peptide diluted to 20 μM final from a 2 mM stock.
To prepare plates, HCV replicon cells, with or without a Renilla luciferase reporter gene, were trypsinized and placed into each well of a 96-well plate with titrated test compounds added in columns 3 through 12; columns 1 and 2 contained a control compound (HCV protease inhibitor), and the bottom row contained cells without compound. The plates were then placed in a CO2 incubator at 37° C.
Assays. Subsequent to addition of the test compounds described above (FRET Assay Preparation), at various times the plate was removed and Alamar blue solution (Trek Diagnostics, #00-100) was added per well as a measure of cellular toxicity. After reading in a Cytoflour 4000 instrument (PE Biosystems), plates were rinsed with PBS and then used for FRET assay by the addition of 30 ul of the FRET peptide assay reagent described above (FRET Assay Preparation) per well. The plate was then placed into the Cytoflour 4000 instrument which had been set to 340 excite/490 emission, automatic mode for 20 cycles and the plate read in a kinetic mode. Typically, the signal to noise using an endpoint analysis after the reads was at least three-fold. Alternatively, after Alamar blue reading, plates were rinsed with PBS, 50 ul of DMEM (high glucose) without phenol red was added and plates were then used for luciferase assay using the Promega Dual-Glo Luciferase Assay System.
Compound analysis was determined by quantification of the relative HCV replicon inhibition and the relative cytotoxicity values. To calculate cytoxicity values, the average Alamar Blue fluorescence signals from the control wells were set as 100% non-toxic. The individual signals in each of the compound test wells were then divided by the average control signal and multiplied by 100% to determine […]. To calculate the HCV replicon inhibition values, an average background value was obtained from the two wells containing the highest amount of HCV protease inhibitor at the end of the assay period. These numbers were similar to those obtained from naïve Huh-7 cells.
The background numbers were then subtracted from the average signal obtained from the control wells and this number was used as 100% activity. The individual signals in each of the compound test wells were then divided by the averaged control values after background subtraction and multiplied by 100% to determine percent activity. EC50 values for a protease inhibitor titration were calculated as the concentration which caused a 50% reduction in FRET or luciferase activity. The two numbers generated for the compound plate, percent cytoxicity and percent activity were used to determine compounds of interest for further analysis.

[3] = determined using the preincubation protocol, read-out: IC50
[4] = determined using the FRET assay, read-out: EC50

T1 sequence (Q9WMX2 2420-2992): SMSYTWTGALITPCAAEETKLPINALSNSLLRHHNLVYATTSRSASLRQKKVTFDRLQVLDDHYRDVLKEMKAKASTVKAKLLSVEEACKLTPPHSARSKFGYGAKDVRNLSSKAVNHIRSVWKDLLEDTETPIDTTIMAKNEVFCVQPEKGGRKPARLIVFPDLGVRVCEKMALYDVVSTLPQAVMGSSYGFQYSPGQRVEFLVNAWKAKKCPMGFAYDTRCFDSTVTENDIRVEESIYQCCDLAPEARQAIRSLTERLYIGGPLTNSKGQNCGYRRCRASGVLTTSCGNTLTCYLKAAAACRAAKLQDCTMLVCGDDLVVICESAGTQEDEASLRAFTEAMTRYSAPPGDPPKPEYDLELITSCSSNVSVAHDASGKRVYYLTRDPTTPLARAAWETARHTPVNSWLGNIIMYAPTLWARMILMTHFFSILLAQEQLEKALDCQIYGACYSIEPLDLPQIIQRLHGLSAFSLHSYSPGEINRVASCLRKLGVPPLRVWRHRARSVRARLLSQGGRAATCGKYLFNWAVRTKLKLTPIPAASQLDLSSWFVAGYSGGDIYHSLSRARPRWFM

| SMILES | pIC50 [1, 3] | pEC50 [2, 4] | pIC50 [1] | pEC50 [2] |
| --- | --- | --- | --- | --- |
| CCN(CC12CC1c1cc(OC)ccc1-c1c(C3CCCCC3)c3ccc(C(=O)NS(=O)(=O)N(C)C)cc3n1C2)C(C)=O (centres unmarked) | 6.30 to 9.00 | 6.30 to 9.00 |  |  |
| COc1ccc2c(c1)C1CC1(COC(=O)N1CCOCC1)Cn1c-2c(C2CCCCC2)c2ccc(C(=O)NS(=O)(=O)N(C)C)cc21 (centres unmarked) | 6.30 to 9.00 | 6.30 to 9.00 |  |  |
| COC(=O)CC12CC1c1cc(OC)ccc1-c1c(C3CCCCC3)c3ccc(C(=O)O)cc3n1C2 (centres unmarked) | 6.30 to 9.00 | 6.30 to 9.00 |  |  |
| COc1ccc2c(c1)C1CC1(CO)Cn1c-2c(C2CCCCC2)c2ccc(C(=O)NS(=O)(=O)N(C)C)cc21 (centres unmarked) | 6.30 to 9.00 | 6.30 to 9.00 |  |  |
| COc1ccc2c(c1)C1CC1(CC(=O)O)Cn1c-2c(C2CCCCC2)c2ccc(C(=O)NS(=O)(=O)N(C)C)cc21 (centres unmarked) | 6.30 to 9.00 | 6.00 to 6.30 |  |  |
| COc1ccc2c(c1)C1CC1(CC(=O)N1C3CCC1CN(C)C3)Cn1c-2c(C2CCCCC2)c2ccc(C(=O)NS(=O)(=O)N(C)C)cc21 (centres unmarked) |  |  | < 6.92 | 6.30 to 9.00 |
| COc1ccc2c(c1)C1CC1(CN1CCOCC1)Cn1c-2c(C2CCCCC2)c2ccc(C(=O)NS(=O)(=O)N(C)C)cc21 (centres unmarked) | 6.30 to 9.00 | 6.30 to 9.00 |  |  |
| COC(=O)CC12CC1c1cc(OC)ccc1-c1c(C3CCCCC3)c3ccc(C(=O)NS(=O)(=O)N(C)C)cc3n1C2 (centres unmarked) | 6.30 to 9.00 | < 6.92 |  |  |
| COc1ccc2c(c1)C1CC1(CC(=O)N1C[C@@H](C)O[C@H](C)C1)Cn1c-2c(C2CCCCC2)c2ccc(C(=O)NS(=O)(=O)N(C)C)cc21 (some centres unmarked) | 6.30 to 9.00 | 6.30 to 9.00 |  |  |
| COc1ccc2c(c1)C1CC1(CC(=O)N1CCOCC1)Cn1c-2c(C2CCCCC2)c2ccc(C(=O)NS(=O)(=O)N(C)C)cc21 (centres unmarked) | 6.30 to 9.00 | 6.30 to 9.00 |  |  |
